Data as given in patent US7122526B2, “Indolocarbazole anticancer agents and methods of using same” (Nanosphere, Inc., priority 2000, dated 2006).

Columns and labels:
[1] = test system: HT-29 Colon; experiment: In vitro cytotoxicity assay (MTS), HT-29; format: cell-based; conditions: HT-29 human colon tumor cell line, MTS assay 3–5 days; read-out: Growth-Inhibitory Activity IC50 HT-29 Colon
Description: (§1) b.) In vitro Cytotoxicity Assay. 96-Well tissue culture cluster plates were seeded with 100 μL of cell suspension (5×10^3 cells/mL), and incubated overnight for cell anchorage and acclimation. Cells were propagated under sterile conditions in RPMI 1640 or DMEM with 10% fetal bovine serum, 2 mM L-glutamine, and sodium bicarbonate (complete medium), and incubated at 37° C. The test compounds were prepared in DMSO and then diluted in complete media. A range of eight concentrations was used for each test drug to establish cytotoxicity, with eight replicates for each concentration. All dosing was conducted using a Biomek 2000 robotic liquid handler. The plates were incubated at 37° C. with 5% CO2 and 95% relative humidity. The data were analyzed for cytotoxicity using the MTS assay 3–5 days (depending upon the growth rate of the cell lines) after commencement of treatment.
(§2) c.) MTS Assay. A solution of 40 μL of MTS/PES solution (purchased from Promega Corporation) was added to each well, and incubated for one to four hours. The absorbance of formazan in each monolayer was measured at 490 nm on a Coulter microplate reader. The data were processed in a spreadsheet program to provide a dose-response curve, allowing determination of the IC50.

[2] = biological target: T1, Human Topoisomerase I (Homo sapiens, UniProt P11387); experiment: Topoisomerase I assay (pHOT1 supercoiled DNA, agarose gel); format: biochemical; conditions: supercoiled DNA band density, 37° C., 30 minutes; read-out: Poisoning of Human Topoisomerase I IC50
T1 sequence (P11387 1-765): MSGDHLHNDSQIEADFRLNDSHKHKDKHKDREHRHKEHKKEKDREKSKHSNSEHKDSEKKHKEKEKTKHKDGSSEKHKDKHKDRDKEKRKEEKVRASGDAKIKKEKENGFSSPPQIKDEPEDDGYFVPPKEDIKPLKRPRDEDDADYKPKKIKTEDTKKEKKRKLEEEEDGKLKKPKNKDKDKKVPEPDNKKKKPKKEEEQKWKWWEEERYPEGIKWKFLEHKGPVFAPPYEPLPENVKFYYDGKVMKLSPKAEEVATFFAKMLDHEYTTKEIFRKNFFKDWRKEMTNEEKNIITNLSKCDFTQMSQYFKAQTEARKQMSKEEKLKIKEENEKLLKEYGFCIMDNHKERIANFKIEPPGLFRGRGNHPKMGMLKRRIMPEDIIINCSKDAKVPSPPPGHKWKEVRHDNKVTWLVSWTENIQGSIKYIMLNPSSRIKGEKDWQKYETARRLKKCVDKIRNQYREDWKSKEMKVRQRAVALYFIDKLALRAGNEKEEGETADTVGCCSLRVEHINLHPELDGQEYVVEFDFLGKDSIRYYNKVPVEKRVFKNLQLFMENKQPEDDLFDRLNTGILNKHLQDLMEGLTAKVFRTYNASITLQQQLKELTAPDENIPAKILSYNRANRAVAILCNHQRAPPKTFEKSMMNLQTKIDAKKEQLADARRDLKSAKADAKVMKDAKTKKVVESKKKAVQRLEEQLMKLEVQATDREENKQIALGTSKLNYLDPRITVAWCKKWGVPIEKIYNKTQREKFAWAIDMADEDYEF
Description: a.) Topoisomerase I assay. Reaction buffer (10.3 μL H2O, 2.0 μL 10×buffer, 1.5 μL […] MgCl2, and 3.2 μL 500 mM KCl) was prepared and kept on ice. 10×Buffer was prepared by mixing 2 mL 2M Tris pH 7.5, 15.3 μL 10% DTT, 100 μL 0.5 M EDTA, 75 μL 20 mg/mL BSA, and […]. Test poisons were prepared in DMSO at such concentrations that the final incubation mixture was 5% DMSO. DNA mix was prepared by dissolving […] of pHOT1 DNA solution (0.25 μg/μL) with 715 μL reaction buffer. Topo I mix was prepared by mixing 14 μL of Topo I solution (2 units/μL) with 266 μL of reaction buffer. Proteinase K solution was prepared fresh as 10 mg/mL in 1% SDS. Gel loading buffer was prepared by dissolving 1 mg bromophenol blue in 100 μL H2O, then adding 900 μL 50% glycerol.
The assay was conducted as follows. DNA mix (14 μL) was added to sample tubes containing 1 μL of test poison solution and stored on ice. Next, 5 μL of Topo I mix was added, the solution was mixed with the pipettor, then incubated with gentle rocking in a 37° C. water bath for 30 minutes. The reactions were stopped via addition of 2 μL of proteinase K solution, and incubation was continued for another 30 minutes, then placed on ice. 2.2 μL of 5 M NaCl and 75 μL of EtOH were added to the tubes, the tubes were vortexed briefly, then placed on dry ice for 1 hour. The DNA was pelleted by centrifugation at 16,000×g for 10 minutes at 4° C. EtOH was removed from each tube using a gel loading pipette tip, and the DNA pellet was resuspended in 18 μL of reaction buffer and 2 μL of gel loading buffer. The samples were vortexed briefly, then spun for 15 seconds in a micro-centrifuge to force all the liquid to the bottom of the tubes. The samples were loaded onto a 1% agarose gel made with 1×TBE containing 2 μg/mL chloroquine. The gels were run at 35 V for 15 hours in 1×TBE. Gels were stained with 0.5 μg/mL ethidium bromide in 1×TBE for 1 hour, then destained for 30 minutes in H2O. Gels were photographed with a digital camera, and the digitized images analyzed using NIH software. IC50 values were determined by comparing supercoiled DNA band density (negative controls containing 5 μL reaction buffer in place of Topo I mix) with the supercoiled DNA bands remaining in the test samples.

[3] = test system: OVCAR-3 Ovarian; experiment: In vitro cytotoxicity assay (MTS), OVCAR-3; format: cell-based; conditions: OVCAR-3 human ovarian tumor cell line, MTS assay 3–5 days; read-out: Growth-Inhibitory Activity IC50 OVCAR-3 Ovarian
Description: as §1, §2

[4] = test system: DU-145 Prostate; experiment: In vitro cytotoxicity assay (MTS), DU-145; format: cell-based; conditions: DU-145 human prostate tumor cell line, MTS assay 3–5 days; read-out: Growth-Inhibitory Activity IC50 DU-145 Prostate
Description: as §1, §2

Row | SMILES | IC50 [1] | IC50 [2] | IC50 [3] | IC50 [4]
1 | O=C1NC(=O)c2c1c1c3cc(O)ccc3[nH]c1c1c2c2cc(O)ccc2n1[C@@H]1O[C@H](CO)[C@@H](O)[C@H](O)[C@H]1O [ALS-007, 3,9-dihydroxy-12-(β-D-glucopyranosyl)-6,7,12,13-tetrahydroindolo[2,3-a]pyrrolo[3,4-c]carbazole-5,7-dione, reference compound] | 9960 nM | 20900 nM | < 10 nM | 338 nM
2 | O=C1NC(=O)c2c1c1c3cc(O)ccc3[nH]c1c1c2c2cc3c(cc2n1[C@@H]1O[C@H](CO)[C@@H](O)[C@H](O)[C@H]1O)OCCO3 [IIa, 2,3-ethylenedioxy-9-hydroxy-13-(β-D-glucopyranosyl)-6,7,12,13-tetrahydroindolo[2,3-a]pyrrolo[3,4-c]carbazole-5,7-dione] | – | > 400000 nM | – | –
3 | O=C1NC(=O)c2c1c1c3cc(O)ccc3[nH]c1c1c2c2cc3c(cc2n1[C@@H]1O[C@H](CO)[C@@H](O)[C@H](O)[C@H]1O)OCO3 [IIb, 2,3-methylenedioxy-9-hydroxy-13-(β-D-glucopyranosyl)-6,7,12,13-tetrahydroindolo[2,3-a]pyrrolo[3,4-c]carbazole-5,7-dione] | – | > 400000 nM | – | –
4 | O=C1NC(=O)c2c1c1c3cc4c(cc3[nH]c1c1c2c2cc(O)ccc2n1[C@@H]1O[C@H](CO)[C@@H](O)[C@H](O)[C@H]1O)OCCO4 [Ia, 2,3-ethylenedioxy-9-hydroxy-12-(β-D-glucopyranosyl)-6,7,12,13-tetrahydroindolo[2,3-a]pyrrolo[3,4-c]carbazole-5,7-dione] | > 10000 nM | 5400 nM | < 10 nM | 845 nM
5 | O=C1NC(=O)c2c1c1c3cc4c(cc3[nH]c1c1c2c2cc(O)ccc2n1[C@@H]1O[C@H](CO)[C@@H](O)[C@H](O)[C@H]1O)OCO4 [Ib, 2,3-methylenedioxy-9-hydroxy-12-(β-D-glucopyranosyl)-6,7,12,13-tetrahydroindolo[2,3-a]pyrrolo[3,4-c]carbazole-5,7-dione] | > 10000 nM | 3600 nM | < 10 nM | 460 nM
6 | CC1(C)Oc2cc3[nH]c4c(c5c(c6c7cc(O)ccc7n(C7OC(CO)C(O)C(O)C7O)c46)C(=O)NC5=O)c3cc2O1 [Ic, 2,3-isopropylenedioxy-9-hydroxy-12-(β-D-glucopyranosyl)-6,7,12,13-tetrahydroindolo[2,3-a]pyrrolo[3,4-c]carbazole-5,7-dione] | > 10000 nM | 8100 nM | 36 nM | 2360 nM
7 | CC[C@@]1(O)C(=O)OCc2c1cc1n(c2=O)Cc2cc3c(CN(C)C)c(O)ccc3nc2-1 [Topotecan, reference compound] | 533 nM | – | < 3 nM | 30 nM
8 | O=C1c2c(c3c4cc(O)ccc4n(C4OC(CO)C(O)C(O)C4O)c3c3[nH]c4cc5c(cc4c23)OCCO5)C(=O)N1CO [compound 9, 2,3-ethylenedioxy-6-hydroxymethyl-9-hydroxy-12-(β-D-glucopyranosyl)-6,7,12,13-tetrahydroindolo[2,3-a]pyrrolo[3,4c]carbazole-5,7-dione] | > 10000 nM | 3900 nM | < 10 nM | 718 nM
9 | O=C1c2c(c3c4cc(O)ccc4n([C@@H]4O[C@H](CO)[C@@H](O)[C@H](O)[C@H]4O)c3c3[nH]c4cc5c(cc4c23)OCO5)C(=O)N1CO [compound 16, 2,3-methylenedioxy-6-hydroxymethyl-9-hydroxy-12-(β-D-glucopyranosyl)-6,7,12,13-tetrahydroindolo[2,3-a]pyrrolo[3,4-c]carbazole-5,7-dione] | > 10000 nM | 3600 nM | < 10 nM | 549 nM
10 | CC1(C)Oc2cc3[nH]c4c(c5c(c6c7cc(O)ccc7n(C7OC(CO)C(O)C(O)C7O)c46)C(=O)N(CO)C5=O)c3cc2O1 [compound 23, 2,3-isopropylenedioxy-6-hydroxymethyl-9-hydroxy-12-(β-D-glucopyranosyl)-6,7,12,13-tetrahydroindolo[2,3-a]pyrrolo[3,4-c]carbazole-5,7-dione] | > 10000 nM | 130000 nM | 43 nM | 3520 nM
